Measurements from the supplement of paper PMC10307832.

Key:
Test in all cases: relative viability (nuclei count vs DMSO), 5 days (fraction); higher = more cells survive
NCI-H1395 = test system: NCI-H1395
In short: (§1)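 Nuclei were stained with Hoechst during a one-step fixation (final 0.05% Triton X-100, 1% formaldehyde, 1 ug/ml Hoechst) carried out 5 days after dosing, then counted on 4× images. The cells, lung cancer lines in 1536-well plates, had been dosed by pin tool the day after seeding with one drug alone or a fixed anchor-drug dose plus five library-drug doses (not always all listed) in √10 steps. Relative viability is the nuclei count in treated wells divided by that in vehicle wells, and each value is the median of duplicate plates.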

NCI-H1755 = test system: NCI-H1755
In short: as §1

NCI-H1437 = test system: NCI-H1437
In short: as §1

NCI-H1915 = test system: NCI-H1915
In short: as §1

NCI-H1975 = test system: NCI-H1975
In short: as §1

NCI-H727 = test system: NCI-H727
In short: as §1

NCI-H2228 = test system: NCI-H2228
In short: as §1

EMC-BAC-2 = test system: EMC-BAC-2
In short: as §1

A-427 = test system: A-427
In short: as §1

CAL-12T = test system: CAL-12T
In short: as §1

NCI-H23 = test system: NCI-H23
In short: as §1

COR-L 105 = test system: COR-L 105
In short: as §1

HCC-366 = test system: HCC-366
In short: as §1

NCI-H2009 = test system: NCI-H2009
In short: as §1

LCLC-103H = test system: LCLC-103H
In short: as §1

NCI-H460 = test system: NCI-H460
In short: as §1

SW 1573 = test system: SW 1573
In short: as §1

SK-LU-1 = test system: SK-LU-1
In short: as §1

HARA = test system: HARA
In short: as §1

NCI-H1355 = test system: NCI-H1355
In short: as §1

HCC-827 = test system: HCC-827
In short: as §1

NCI-H522 = test system: NCI-H522
In short: as §1

HOP-62 = test system: HOP-62
In short: as §1

C[C@@H]1CN(CC(=O)Nc2ccc3c(c2)Cc2cccc(-c4cc(=O)cc(N5CCOCC5)o4)c2S3)C[C@H](C)O1 + O=C(CCCCCCC(=O)Nc1ccccc1)NO [Vorinostat] (partner 1 µM)
relative viability (NCI-H1395; first compound 0.1265 µM): 0.631
relative viability (NCI-H1395; first compound 0.4 µM): 0.597
relative viability (NCI-H1395; first compound 4 µM): 0.812
relative viability (NCI-H1755; first compound 0.04 µM): 0.759
relative viability (NCI-H1755; first compound 0.1265 µM): 0.854
relative viability (NCI-H1755; first compound 0.4 µM): 0.729
relative viability (NCI-H1755; first compound 4 µM): 0.87
relative viability (NCI-H1437; first compound 0.04 µM): 0.837
relative viability (NCI-H1437; first compound 0.1265 µM): 0.768
relative viability (NCI-H1437; first compound 0.4 µM): 0.819
relative viability (NCI-H1437; first compound 4 µM): 0.609
relative viability (NCI-H1915; first compound 0.04 µM): 0.434
relative viability (NCI-H1915; first compound 0.1265 µM): 0.538
relative viability (NCI-H1915; first compound 0.4 µM): 0.537
relative viability (NCI-H1915; first compound 4 µM): 0.421
relative viability (NCI-H1975; first compound 0.04 µM): 0.68
relative viability (NCI-H1975; first compound 0.1265 µM): 0.717
relative viability (NCI-H1975; first compound 0.4 µM): 0.61
relative viability (NCI-H1975; first compound 4 µM): 0.536
relative viability (NCI-H727; first compound 0.04 µM): 1.03
relative viability (NCI-H727; first compound 0.1265 µM): 1.17
relative viability (NCI-H727; first compound 0.4 µM): 1.15
relative viability (NCI-H727; first compound 4 µM): 1.13
relative viability (NCI-H2228; first compound 0.04 µM): 0.667
relative viability (NCI-H2228; first compound 0.1265 µM): 0.589
relative viability (NCI-H2228; first compound 0.4 µM): 0.852
relative viability (NCI-H2228; first compound 4 µM): 0.569
relative viability (EMC-BAC-2; first compound 0.04 µM): 0.397
relative viability (EMC-BAC-2; first compound 0.1265 µM): 0.468
relative viability (EMC-BAC-2; first compound 0.4 µM): 0.469
relative viability (EMC-BAC-2; first compound 4 µM): 0.54
relative viability (A-427; first compound 0.04 µM): 0.853
relative viability (A-427; first compound 0.1265 µM): 0.92
relative viability (A-427; first compound 0.4 µM): 0.908
relative viability (A-427; first compound 4 µM): 0.779
relative viability (CAL-12T; first compound 0.04 µM): 0.719
relative viability (CAL-12T; first compound 0.1265 µM): 0.623
relative viability (CAL-12T; first compound 0.4 µM): 0.739
relative viability (CAL-12T; first compound 4 µM): 0.377
relative viability (NCI-H23; first compound 0.04 µM): 0.634
relative viability (NCI-H23; first compound 0.1265 µM): 0.508
relative viability (NCI-H23; first compound 0.4 µM): 0.537
relative viability (NCI-H23; first compound 4 µM): 0.589
relative viability (COR-L 105; first compound 0.04 µM): 0.799
relative viability (COR-L 105; first compound 0.1265 µM): 0.783
relative viability (COR-L 105; first compound 0.4 µM): 0.926
relative viability (COR-L 105; first compound 4 µM): 0.875
relative viability (HCC-366; first compound 0.04 µM): 0.314
relative viability (HCC-366; first compound 0.1265 µM): 0.366
relative viability (HCC-366; first compound 0.4 µM): 0.346
relative viability (HCC-366; first compound 4 µM): 0.264
relative viability (NCI-H2009; first compound 0.04 µM): 0.635
relative viability (NCI-H2009; first compound 0.1265 µM): 0.772
relative viability (NCI-H2009; first compound 0.4 µM): 0.664
relative viability (NCI-H2009; first compound 4 µM): 0.497
relative viability (LCLC-103H; first compound 0.04 µM): 0.743
relative viability (LCLC-103H; first compound 0.1265 µM): 0.674
relative viability (LCLC-103H; first compound 0.4 µM): 0.804
relative viability (LCLC-103H; first compound 4 µM): 0.706
relative viability (NCI-H460; first compound 0.04 µM): 0.69
relative viability (NCI-H460; first compound 0.1265 µM): 0.738
relative viability (NCI-H460; first compound 0.4 µM): 0.704
relative viability (NCI-H460; first compound 4 µM): 0.203
relative viability (SW 1573; first compound 0.04 µM): 0.551
relative viability (SW 1573; first compound 0.1265 µM): 0.989
relative viability (SW 1573; first compound 0.4 µM): 0.909
relative viability (SW 1573; first compound 4 µM): 0.769
relative viability (SK-LU-1; first compound 0.04 µM): 0.765
relative viability (SK-LU-1; first compound 0.1265 µM): 0.831
relative viability (SK-LU-1; first compound 0.4 µM): 0.811
relative viability (SK-LU-1; first compound 4 µM): 0.568
relative viability (HARA; first compound 0.04 µM): 0.511
relative viability (HARA; first compound 0.1265 µM): 0.61
relative viability (HARA; first compound 0.4 µM): 0.445
relative viability (HARA; first compound 4 µM): 0.436
relative viability (NCI-H1355; first compound 0.04 µM): 0.552
relative viability (NCI-H1355; first compound 0.1265 µM): 0.713
relative viability (NCI-H1355; first compound 0.4 µM): 0.566
relative viability (NCI-H1355; first compound 4 µM): 0.621
relative viability (HCC-827; first compound 0.04 µM): 0.801
relative viability (HCC-827; first compound 0.1265 µM): 0.862
relative viability (HCC-827; first compound 0.4 µM): 0.727
relative viability (HCC-827; first compound 4 µM): 0.757
relative viability (NCI-H522; first compound 0.04 µM): 0.539
relative viability (NCI-H522; first compound 0.1265 µM): 0.696
relative viability (NCI-H522; first compound 0.4 µM): 0.876
relative viability (NCI-H522; first compound 4 µM): 0.766
relative viability (HOP-62; first compound 0.04 µM): 0.477
relative viability (HOP-62; first compound 0.1265 µM): 0.648
relative viability (HOP-62; first compound 0.4 µM): 0.687
relative viability (HOP-62; first compound 4 µM): 0.509

CC(C)Oc1cc(Nc2nc(N[C@@H](C)c3ccc(F)cn3)ncc2Cl)n[nH]1 [AZ23] + Cc1cc(Nc2cc(N3CCN(C)CC3)nc(Sc3ccc(NC(=O)C4CC4)cc3)n2)n[nH]1 [Tozasertib] (partner 0.1 µM)
relative viability (NCI-H1395; first compound 0.03162 µM): 0.812
relative viability (NCI-H1395; first compound 0.3162 µM): 0.815
relative viability (NCI-H1755; first compound 0.01 µM): 0.556
relative viability (NCI-H1755; first compound 0.03162 µM): 0.613
relative viability (NCI-H1755; first compound 0.3162 µM): 0.664
relative viability (NCI-H1437; first compound 0.01 µM): 0.434
relative viability (NCI-H1437; first compound 0.03162 µM): 0.449
relative viability (NCI-H1437; first compound 0.3162 µM): 0.413
relative viability (NCI-H1915; first compound 0.01 µM): 0.479
relative viability (NCI-H1915; first compound 0.03162 µM): 0.507
relative viability (NCI-H1915; first compound 0.3162 µM): 0.514
relative viability (NCI-H1975; first compound 0.01 µM): 0.836
relative viability (NCI-H1975; first compound 0.03162 µM): 0.977
relative viability (NCI-H1975; first compound 0.3162 µM): 0.744
relative viability (NCI-H727; first compound 0.01 µM): 0.754
relative viability (NCI-H727; first compound 0.03162 µM): 0.679
relative viability (NCI-H727; first compound 0.3162 µM): 0.37
relative viability (NCI-H2228; first compound 0.01 µM): 0.219
relative viability (NCI-H2228; first compound 0.03162 µM): 0.247
relative viability (NCI-H2228; first compound 0.3162 µM): 0.265
relative viability (EMC-BAC-2; first compound 0.01 µM): 0.262
relative viability (EMC-BAC-2; first compound 0.03162 µM): 0.28
relative viability (EMC-BAC-2; first compound 0.3162 µM): 0.296
relative viability (A-427; first compound 0.01 µM): 0.174
relative viability (A-427; first compound 0.03162 µM): 0.193
relative viability (A-427; first compound 0.3162 µM): 0.177
relative viability (CAL-12T; first compound 0.03162 µM): 0.342
relative viability (CAL-12T; first compound 0.3162 µM): 0.241
relative viability (NCI-H23; first compound 0.03162 µM): 0.558
relative viability (NCI-H23; first compound 0.3162 µM): 0.363
relative viability (COR-L 105; first compound 0.01 µM): 0.375
relative viability (COR-L 105; first compound 0.03162 µM): 0.447
relative viability (COR-L 105; first compound 0.3162 µM): 0.365
relative viability (HCC-366; first compound 0.01 µM): 0.114
relative viability (HCC-366; first compound 0.03162 µM): 0.152
relative viability (HCC-366; first compound 0.3162 µM): 0.234
relative viability (NCI-H2009; first compound 0.01 µM): 0.755
relative viability (NCI-H2009; first compound 0.03162 µM): 0.912
relative viability (NCI-H2009; first compound 0.3162 µM): 0.91
relative viability (LCLC-103H; first compound 0.01 µM): 0.467
relative viability (LCLC-103H; first compound 0.03162 µM): 0.491
relative viability (LCLC-103H; first compound 0.3162 µM): 0.559
relative viability (NCI-H460; first compound 0.01 µM): 0.184
relative viability (NCI-H460; first compound 0.03162 µM): 0.518
relative viability (NCI-H460; first compound 0.3162 µM): 0.566
relative viability (SW 1573; first compound 0.01 µM): 0.168
relative viability (SW 1573; first compound 0.03162 µM): 0.151
relative viability (SW 1573; first compound 0.3162 µM): 0.17
relative viability (SK-LU-1; first compound 0.03162 µM): 0.382
relative viability (SK-LU-1; first compound 0.3162 µM): 0.335
relative viability (HARA; first compound 0.03162 µM): 0.0837
relative viability (HARA; first compound 0.3162 µM): 0.11
relative viability (NCI-H1355; first compound 0.01 µM): 0.507
relative viability (NCI-H1355; first compound 0.03162 µM): 0.609
relative viability (NCI-H1355; first compound 0.3162 µM): 0.597
relative viability (HCC-827; first compound 0.01 µM): 0.448
relative viability (HCC-827; first compound 0.03162 µM): 0.445
relative viability (HCC-827; first compound 0.3162 µM): 0.415
relative viability (NCI-H522; first compound 0.01 µM): 0.519
relative viability (NCI-H522; first compound 0.03162 µM): 0.567
relative viability (NCI-H522; first compound 0.3162 µM): 0.65
relative viability (HOP-62; first compound 0.01 µM): 0.352
relative viability (HOP-62; first compound 0.03162 µM): 0.424
relative viability (HOP-62; first compound 0.3162 µM): 0.37
